Measurements: ChEMBL document CHEMBL1156699, “C-terminal constrained phenylalanine as a pharmacophoric unit in peptide-based proteasome inhibitors” (Eur J Med Chem, 2008)
Residues, ends and D or L forms follow the SMILES beside them. *: point of attachment. Cbz = O=C(OCc1ccccc1)*

Columns and labels:
[1] = Inhibition of caspase like 20S proteasome activity in lymphoblastoid cells; type: cell-based
[2] = Inhibition of trypsin like 20S proteasome activity in lymphoblastoid cells; type: cell-based
[3] = Inhibition of chymotrypsin like 20S proteasome activity in lymphoblastoid cells; type: cell-based
[4] = In vivo inhibition of caspase like 20S proteasome; type: organism-based
[5] = In vivo inhibition of chymotrypsin like 20S proteasome; type: organism-based
[6] = Half life in human plasma after 360 mins; type: ADME, cell-free
[7] = In vivo inhibition of trypsin like 20S proteasome; type: organism-based

IC50 [1] [µM] | IC50 [2] [µM] | IC50 [3] [µM] | IC50 [4] [µM] | IC50 [5] [µM] | half-life [6] [h] | IC50 [7] [µM] | Structure (SMILES)
2.5 | > 10 | > 10 | – | – | – | – | CCOC(=O)/C=C/[C@@H]1Cc2ccccc2CN1C(=O)[C@H](CC(C)C)NC(=O)[C@H](CO)NC(=O)[C@@H](NC(=O)c1cccc(O)c1C)C(C)C
> 10 | 0.033 | > 10 | > 10 | > 10 | > 6 | 0.05 | CCOC(=O)/C=C/[C@H](CC(C)C)NC(=O)[C@H](CO)NC(=O)[C@@H](NC(=O)c1cccc(O)c1C)C(C)C
0.952 | > 10 | 8.45 | 1.41 | – | > 6 | – | CCOC(=O)/C=C/[C@H]1Cc2ccccc2CN1C(=O)[C@H](CC(C)C)NC(=O)[C@H](CC(C)C)NC(=O)[C@H](CC(C)C)NC(=O)c1cccc(O)c1C
> 10 | 0.183 | > 10 | > 10 | > 10 | > 6 | 0.231 | CCOC(=O)/C(=C/c1ccccc1)NC(=O)[C@H](CO)NC(=O)[C@@H](NC(=O)c1cccc(O)c1C)C(C)C
> 10 | 1.76 | 1.19 | > 10 | 1.55 | > 6 | 2.18 | CCOC(=O)/C(=C/c1ccccc1)NC(=O)[C@H](CC(C)C)NC(=O)[C@H](CC(C)C)NC(=O)c1cccc(O)c1C
1.48 | > 10 | 3.73 | 2.05 | – | > 6 | – | CCOC(=O)/C=C/[C@H]1Cc2ccccc2CN1C(=O)[C@H](CC(C)C)NC(=O)[C@H](CC(C)C)NC(=O)c1cccc(O)c1C
2.96 | 3.67 | > 10 | – | – | – | – | CCOC(=O)/C=C/[C@H]1Cc2ccccc2CN1C(=O)[C@H](CO)NC(=O)[C@@H](NC(=O)c1cccc(O)c1C)C(C)C
> 10 | 1.31 | 0.894 | > 10 | 1.04 | > 6 | 1.81 | CCOC(=O)/C(=C/c1ccccc1)NC(=O)[C@H](CC(C)C)NC(=O)[C@H](CC(C)C)NC(=O)[C@H](CC(C)C)NC(=O)c1cccc(O)c1C
2.35 | 7.95 | > 10 | – | – | – | – | CCOC(=O)/C=C/[C@H]1Cc2ccccc2CN1C(=O)[C@H](CC(C)C)NC(=O)[C@H](CO)NC(=O)[C@@H](NC(=O)c1cccc(O)c1C)C(C)C
3.92 | 2.79 | > 10 | – | – | – | – | CCOC(=O)/C=C/[C@@H]1Cc2ccccc2CN1C(=O)[C@H](CO)NC(=O)[C@@H](NC(=O)c1cccc(O)c1C)C(C)C
2.14 | 5.84 | 2.06 | – | – | – | – | CCOC(=O)/C=C/[C@@H]1Cc2ccccc2CN1C(=O)[C@H](CC(C)C)NC(=O)[C@H](CC(C)C)NC(=O)c1cccc(O)c1C
1.73 | > 10 | 5.29 | – | – | – | – | CCOC(=O)/C=C/[C@@H]1Cc2ccccc2CN1C(=O)[C@H](CC(C)C)NC(=O)[C@H](CC(C)C)NC(=O)[C@H](CC(C)C)NC(=O)c1cccc(O)c1C
> 10 | 0.079 | > 10 | > 10 | > 10 | > 6 | 0.092 | CCOC(=O)/C(=C/c1ccccc1)NC(=O)[C@H](CC(C)C)NC(=O)[C@H](CO)NC(=O)[C@@H](NC(=O)c1cccc(O)c1C)C(C)C

Structure (SMILES) | IC50 [1] [µM] | IC50 [2] [µM] | IC50 [3] [µM] | IC50 [4] [µM] | IC50 [5] [µM] | half-life [6] [h] | IC50 [7] [µM]
CC(C)C[C@@H](C=O)NC(=O)[C@H](CC(C)C)NC(=O)[C@H](CC(C)C)NC(=O)OCc1ccccc1 [MG-132] (Cbz-Leu-Leu-Leu-aldehyde) | > 10 | 1.08 | 0.002 | – | – | – | –
CC[C@H](C)[C@H](NC(=O)[C@H]([C@@H](C)CC)N(C)C(C)=O)C(=O)N[C@H](C(=O)N[C@@H](CC(C)C)C(=O)[C@@]1(C)CO1)[C@@H](C)O [EPOXOMYCIN] | – | – | 0.005 | – | – | – | –
